Results from ChEMBL document CHEMBL1147029, “Probing binding requirements of NAD kinase with modified substrate (NAD) analogues” (Bioorg Med Chem Lett, 2007).

target: T1, NAD kinase (Mycobacterium tuberculosis) (UniProt P9WHV7); test: Inhibition of Mycobacterium tuberculosis NAD kinase at 1 mM
T1 sequence (whole entry): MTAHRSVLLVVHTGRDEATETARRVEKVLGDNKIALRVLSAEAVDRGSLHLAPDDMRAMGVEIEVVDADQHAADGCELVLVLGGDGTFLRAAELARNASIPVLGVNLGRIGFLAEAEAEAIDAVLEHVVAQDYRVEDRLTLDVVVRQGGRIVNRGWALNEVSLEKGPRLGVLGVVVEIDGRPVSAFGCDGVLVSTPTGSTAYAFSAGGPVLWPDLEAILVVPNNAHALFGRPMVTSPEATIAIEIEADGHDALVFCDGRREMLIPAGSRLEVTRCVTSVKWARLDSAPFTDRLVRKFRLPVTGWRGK

Q: Which inhibition does the source give for `O=C(CBr)c1cccnc1` here?
A: 30%

Q: How did the inhibition turn out when `O=C(CBr)c1ccccn1` was run?
A: 63%

Q: With `NC(=O)c1ccc[n+]([C@@H]2O[C@H](COP(=O)(O)OP(=O)(O)OC[C@H]3O[C@@H](n4cnc5c(N)ncnc54)[C@@H](O)[C@@H]3O)[C@@H](O)[C@H]2O)c1` as the molecule, how does the inhibition read?
A: 40%

Q: With `O=C(CBr)c1ccncc1` as the molecule, how does the inhibition read?
A: 40%

Q: `NC(=O)c1ccc[n+]([C@@H]2O[C@H](COP(=O)(O)OP(=O)(O)OC[C@H]3O[C@@H](n4cnc5c(N)ncnc54)[C@H](F)[C@@H]3O)[C@@H](O)[C@H]2O)c1` was tested. Which inhibition did it give?
A: < 10%

Q: `NC(=O)c1ccc[n+]([C@@H]2O[C@H](COP(=O)(O)OP(=O)(O)OC[C@H]3O[C@@H](n4cnc5c(N)ncnc54)[C@@H](F)[C@@H]3O)[C@@H](O)[C@H]2O)c1` was tested. Which inhibition did it give?
A: < 10%

Q: For `NC(=O)c1cccc([C@@H]2O[C@H](COP(=O)(O)OP(=O)(O)OC[C@H]3O[C@@H](n4cnc5c(N)ncnc54)[C@H](O)[C@@H]3O)[C@@H](O)[C@H]2O)c1`, which inhibition is on record?
A: < 10%

target: T1, NAD kinase (Mycobacterium tuberculosis); test: Inhibition of Mycobacterium tuberculosis NAD kinase at 2 mM

Q: Which inhibition does the source give for `NC(=O)c1cccc([C@@H]2O[C@H](COP(=O)(O)OP(=O)(O)OC[C@H]3O[C@@H](n4cnc5c(N)ncnc54)[C@H](O)[C@@H]3O)[C@@H](O)[C@H]2O)c1` here?
A: 37%
